Among the test systems are Acinetobacter baumannii; Bacillus subtilis 168; Pseudomonas aeruginosa; Staphylococcus aureus; Escherichia coli B.
Holding throughout (test): ≥ marks a high value that may be exact or a test limit, other limits are often not marked, values filed in µg/mL are converted to µM
In assay [1] the test system is Pseudomonas aeruginosa ATCC 9027.
For assay [2], the system named is Klebsiella pneumoniae ATCC 700603.
For assay [3], the system named is Staphylococcus aureus ATCC 25923.
The test system of assay [4] is Escherichia coli ATCC 25922.
The subject of assay [5] is Pseudomonas aeruginosa ATCC 27853.
Assay [6] concerns Bacillus subtilis ATCC 23857.
The subject of assay [7] is Escherichia coli DH5alpha.
The test system of assay [8] is Acinetobacter baumannii ATCC 19606.
The test system of assay [9] is Enterococcus faecalis ATCC 29212.
The subject of assay [10] is Staphylococcus epidermidis ATCC 12228.
For assay [11], the system named is Candida albicans ATCC 10231.

What is called MIC is the lowest concentration found to suppress growth. A low value points to a more susceptible organism.

Values after ≈ are worked out from the molar mass of the structure shown.

With `CC[C@H](C)[C@H](NC(=O)[C@H](C)N)C(=O)N[C@@H](CC(C)C)C(=O)N[C@@H](CCCN=C(N)N)C(=O)N[C@@H](CCCCN)C(=O)N[C@@H](C)C(=O)N[C@H](C(=O)N[C@@H](CCCN=C(N)N)C(=O)N[C@@H](CCCN=C(N)N)C(=O)N[C@@H](CC(C)C)C(=O)N[C@H](C(=O)N[C@@H](CCC(N)=O)C(=O)N[C@@H](CC(C)C)C(=O)N[C@H](C(=O)N[C@H](C(=O)N[C@@H](CO)C(=O)NCC(=O)O)C(C)C)[C@@H](C)CC)C(C)C)[C@@H](C)O` [AILRKATRRLVQLIVSG], the minimal inhibitory concentration (MIC) was > 25 µM in assay [1]; 25 µM (≈ 47.4 µg/mL) with Acinetobacter baumannii; > 25 µM in assay [2]; > 25 µM in assay [3]; > 25 µM in [4].
In the case of `CC[C@H](C)[C@H](NC(=O)[C@H](CCCCN)NC(=O)[C@H](CCCCN)NC(=O)[C@@H](NC(=O)[C@@H](NC(=O)[C@H](CCCCN)NC(=O)[C@H](CCCCN)NC(=O)[C@@H](NC(=O)[C@@H](NC(=O)CN)[C@@H](C)CC)[C@@H](C)CC)[C@@H](C)CC)[C@@H](C)CC)C(N)=O` [GIIKKIIKKI], the MIC with Bacillus subtilis 168 was 30 µM (≈ 34.6 µg/mL); in assay [2], ≥ 128 µM; in assay [5] it was ≥ 64 µM; in assay [6], 16 µM (≈ 18.4 µg/mL); in [3], ≥ 128 µM; in assay [7], ≥ 125 µM. The MIC in assay [4] was ≥ 32 µM; in [8] it was ≥ 64 µM.
On to `CC[C@H](C)[C@H](NC(=O)[C@H](Cc1cnc[nH]1)NC(=O)[C@H](CCCCN)NC(=O)[C@H](CC(C)C)NC(=O)[C@H](CC(C)C)NC(=O)[C@H](CO)NC(=O)[C@H](CCSC)NC(=O)[C@H](C)NC(=O)[C@H](CCCCN)NC(=O)CN)C(=O)N[C@@H](CC(C)C)C(=O)N[C@@H](CCCCN)C(N)=O` [GKAMSLLKHILK], for which the MIC is > 100 µM in the assay on Pseudomonas aeruginosa, > 100 µM against Staphylococcus aureus, 9.3 µM (≈ 12.4 µg/mL) in the assay on Bacillus subtilis 168 and ≥ 40 µM in the assay on Escherichia coli B.
In the case of `CC[C@H](C)[C@H](NC(=O)[C@H](Cc1cnc[nH]1)NC(=O)[C@H](CCCCN)NC(=O)[C@H](CC(C)C)NC(=O)[C@H](C)NC(=O)[C@H](CO)NC(=O)[C@H](CCSC)NC(=O)[C@H](Cc1c[nH]c2ccccc12)NC(=O)[C@H](CCCCN)NC(=O)CN)C(=O)N[C@@H](CC(C)C)C(=O)N[C@@H](CCCCN)C(N)=O` [GKWMSALKHILK], the MIC in the assay on Pseudomonas aeruginosa was found to be 100 µM (≈ 141 µg/mL); against Staphylococcus aureus, 130 µM (≈ 183 µg/mL); against Bacillus subtilis 168, 2.7 µM (≈ 3.81 µg/mL); in the assay with Escherichia coli B, 20 µM (≈ 28.2 µg/mL).
For `CSCC[C@H](NC(=O)[C@H](Cc1c[nH]c2ccccc12)NC(=O)[C@H](CCCCN)NC(=O)CN)C(=O)N[C@@H](CO)C(=O)N[C@@H](CC(C)C)C(=O)N[C@@H](CC(C)C)C(=O)N[C@@H](CCCCN)C(=O)N[C@@H](Cc1cnc[nH]1)C(=O)N[C@@H](Cc1c[nH]c2ccccc12)C(=O)N[C@@H](CC(C)C)C(=O)N[C@@H](CCCCN)C(N)=O` [GKWMSLLKHWLK], in that order: 25 µM (≈ 38.1 µg/mL), 13.8 µM (≈ 21.1 µg/mL), 1.3 µM (≈ 1.98 µg/mL) and 3.5 µM (≈ 5.34 µg/mL).
For `CC[C@H](C)[C@H](NC(=O)[C@H](CCC(N)=O)NC(=O)[C@H](CCCCN)NC(=O)[C@H](CC(C)C)NC(=O)[C@H](CC(C)C)NC(=O)[C@H](CO)NC(=O)[C@H](CCSC)NC(=O)[C@H](Cc1c[nH]c2ccccc12)NC(=O)[C@H](CCCCN)NC(=O)CN)C(=O)N[C@@H](CC(C)C)C(=O)N[C@@H](CCCCN)C(N)=O` [GKWMSLLKQILK], in that order: 50 µM (≈ 72.2 µg/mL), 10.8 µM (≈ 15.6 µg/mL), 1.8 µM (≈ 2.6 µg/mL) and 2.5 µM (≈ 3.61 µg/mL).
With `CC(C)C[C@H](NC(=O)[C@H](CC(C)C)NC(=O)[C@@H](NC(=O)[C@H](CCCCN)NC(=O)[C@H](C)NC(=O)[C@H](CCCN=C(N)N)NC(=O)[C@H](CCCCN)NC(=O)[C@H](C)NC(=O)[C@H](CC(C)C)NC(=O)CN)[C@@H](C)O)C(N)=O` [GLAKRAKTLL], the MIC in assay [2] is > 512 µM; in [5], > 512 µM; in [6], ≥ 512 µM; in assay [3], > 512 µM; in [4] it was > 512 µM; in assay [9], > 512 µM. In addition, the minimum inhibitory concentration (MIC) in [8] and in [10] was > 512 µM in each case.
Consider `CC(C)C[C@H](NC(=O)[C@H](Cc1ccc(O)cc1)NC(=O)[C@H](CCCCN)NC(=O)[C@H](CC(C)C)NC(=O)[C@H](CC(C)C)NC(=O)[C@H](CCCCN)NC(=O)[C@H](CCCCN)NC(=O)[C@H](Cc1ccccc1)NC(=O)[C@H](CC(C)C)NC(=O)[C@H](CCCN=C(N)N)NC(=O)[C@@H](N)CCCCN)C(=O)N[C@@H](CCCN=C(N)N)C(=O)N[C@@H](CCCCN)C(=O)N[C@@H](Cc1ccccc1)C(=O)O` [KRLFKKLLKYLRKF], for which the minimum inhibitory concentration (MIC) came to 2.13 µM (≈ 4 µg/mL) against Pseudomonas aeruginosa; 1.06 µM (≈ 2 µg/mL) against Acinetobacter baumannii; 1.06 µM (≈ 2 µg/mL) in assay [5]; 0.531 µM (≈ 1 µg/mL) in assay [3]; 2.13 µM (≈ 4 µg/mL) in [11]; 0.531 µM (≈ 1 µg/mL) in assay [4]. Further, the MIC in assay [8] came out at 1.06 µM (≈ 2 µg/mL).
Regarding `CC[C@H](C)[C@H](NC(=O)CNC(=O)[C@H](CCCN=C(N)N)NC(=O)[C@H](Cc1ccc(O)cc1)NC(=O)[C@@H](NC(=O)[C@@H](NC(=O)[C@H](CCCN=C(N)N)NC(=O)[C@H](Cc1ccccc1)NC(=O)[C@@H](NC(=O)[C@H](Cc1c[nH]c2ccccc12)NC(=O)[C@H](Cc1c[nH]c2ccccc12)NC(=O)[C@@H](N)CCCCN)C(C)C)C(C)C)C(C)C)C(=O)N[C@H](C(=O)N[C@@H](Cc1ccc(O)cc1)C(=O)N[C@@H](CCCN=C(N)N)C(=O)N[C@@H](CCCN=C(N)N)C(=O)N[C@H](C(=O)N[C@@H](CCCN=C(N)N)C(=O)N[C@@H](Cc1c[nH]c2ccccc12)C(=O)N[C@@H](CCCCN)C(=O)O)C(C)C)C(C)C` [KWWVFRVVYRGIVYRRVRWK], in assay [7], the minimal inhibitory concentration (MIC) is 12.5 µM (≈ 34.4 µg/mL).
On to `CC[C@H](C)[C@H](NC(=O)[C@H](CCCCN)NC(=O)[C@H](CCCCN)NC(=O)[C@H](C)NC(=O)[C@@H](NC(=O)[C@H](C)NC(=O)[C@H](CC(C)C)NC(=O)[C@H](C)NC(=O)[C@H](C)NC(=O)[C@H](CCCCN)NC(=O)[C@H](CC(C)C)NC(=O)[C@H](CC(N)=O)NC(=O)[C@@H](N)CC(C)C)C(C)C)C(=O)N[C@@H](CC(C)C)C(N)=O` [LNLKAALAVAKKIL], for which the MIC in [1] is 32 µM (≈ 46.9 µg/mL); in assay [2], 16 µM (≈ 23.4 µg/mL); in assay [6], 8 µM (≈ 11.7 µg/mL); in assay [3] it was 32 µM (≈ 46.9 µg/mL); in assay [4] it was 8 µM (≈ 11.7 µg/mL).
With `CC[C@H](C)[C@H](NC(=O)[C@H](CCCCN)NC(=O)[C@H](CCCCN)NC(=O)[C@H](Cc1c[nH]c2ccccc12)NC(=O)[C@@H](NC(=O)[C@@H](N)CC(N)=O)C(C)C)C(=O)N[C@@H](CC(C)C)C(=O)NCC(=O)N[C@@H](CCCCN)C(=O)N[C@H](C(=O)N[C@H](C(=O)N[C@@H](CCCCN)C(=O)N[C@H](C(=O)N[C@H](C(=O)N[C@@H](CCCCN)C(N)=O)C(C)C)C(C)C)[C@@H](C)CC)[C@@H](C)CC` [NVWKKILGKIIKVVK], the MIC in the assay on Pseudomonas aeruginosa stood at 23.1 µM (≈ 40.8 µg/mL); in the assay on Staphylococcus aureus, 9 µM (≈ 15.9 µg/mL); against Bacillus subtilis 168, 0.7 µM (≈ 1.24 µg/mL); in the assay on Escherichia coli B, 1.4 µM (≈ 2.47 µg/mL).
For `CC[C@H](C)[C@H](NC(=O)[C@H](Cc1cnc[nH]1)NC(=O)[C@H](CCCCN)NC(=O)[C@H](CC(C)C)NC(=O)[C@H](CC(C)C)NC(=O)[C@H](CO)NC(=O)[C@H](CCSC)NC(=O)[C@H](Cc1c[nH]c2ccccc12)NC(=O)[C@H](CCCCN)NC(=O)[C@@H](N)CO)C(=O)N[C@@H](CC(C)C)C(=O)N[C@@H](CCCCN)C(N)=O` [SKWMSLLKHILK], the MIC was found to be 50 µM (≈ 74.1 µg/mL) with Pseudomonas aeruginosa, 9.2 µM (≈ 13.6 µg/mL) against Staphylococcus aureus, 1.1 µM (≈ 1.63 µg/mL) in the assay on Bacillus subtilis 168 and 2.3 µM (≈ 3.41 µg/mL) against Escherichia coli B.
In the case of `CC[C@H](C)[C@H](NC(=O)[C@H](CCCCN)NC(=O)[C@@H]1CCCN1C(=O)[C@H](CC(C)C)NC(=O)[C@@H](NC(=O)[C@H](CCCCN)NC(=O)[C@H](CCCCN)NC(=O)[C@H](Cc1c[nH]c2ccccc12)NC(=O)[C@H](CC(N)=O)NC(=O)[C@@H](N)C(C)C)C(C)C)C(=O)N[C@H](C(=O)N[C@@H](CCCCN)C(=O)N[C@H](C(=O)N[C@@H](C)C(=O)N[C@@H](CCCCN)C(N)=O)C(C)C)[C@@H](C)CC` [VNWKKVLPKIIKVAK], the MIC is 100 µM (≈ 176 µg/mL) in the assay on Pseudomonas aeruginosa, > 100 µM with Staphylococcus aureus, 0.9 µM (≈ 1.59 µg/mL) against Bacillus subtilis 168 and 5 µM (≈ 8.82 µg/mL) in the assay on Escherichia coli B.

The record behind these values is DBAASP.
